In ChEMBL document CHEMBL1250441, “Antitumor agents 273. Design and synthesis of N-alkyl-thiocolchicinoids as potential antitumor agents” (Bioorg Med Chem Lett, 2010):
In brackets after ≈: the same amount, converted by molar mass.

How the values were obtained:
[1] = Cytotoxicity against human KBVIN cells expressing p-glycoprotein after 2 days; format: functional; conditions: 48 h, read-out: ED50 (the source's name)
[2] = test system: HCT-8; experiment: Cytotoxicity against human HCT8 cells after 2 days; format: functional; conditions: HCT-8, 48 h, read-out: ED50 (the source's name)
[3] = test system: DU-145; experiment: Cytotoxicity against human DU145 cells after 2 days; format: functional; conditions: DU-145, 48 h, read-out: ED50 (the source's name)
[4] = test system: SK-BR-3; experiment: Cytotoxicity against human SKBR3 cells after 2 days; format: functional; conditions: SK-BR-3, 48 h, read-out: ED50 (the source's name)
[5] = Inhibition of tubulin assembly
[6] = test system: A549; experiment: Cytotoxicity against human A549 cells after 2 days; format: functional; conditions: A549, 48 h, read-out: ED50 (the source's name)
[7] = test system: KB; experiment: Cytotoxicity against human KB cells after 2 days; format: functional; conditions: 48 h, read-out: ED50 (the source's name)
[8] = Solubility of the compound in water; format: physicochemical; conditions: buffer
[9] = Selectivity ratio of ED50 for human HCT8 cells to ED50 for human KBVIN cells; format: functional
[10] = test system: SK-BR-3; experiment: Selectivity ratio of ED50 for human SKBR3 cells to ED50 for human KBVIN cells; format: functional
[11] = test system: A549; experiment: Selectivity ratio of ED50 for human HCT8 cells to ED50 for human A549 cells; format: functional
[12] = test system: DU-145; experiment: Selectivity ratio of ED50 for human HCT8 cells to ED50 for human DU145 cells; format: functional
[13] = test system: HCT-8; experiment: Selectivity ratio of ED50 for human HCT8 cells to ED50 for human KB cells; format: functional
[14] = test system: A549; experiment: Selectivity ratio of ED50 for human SKBR3 cells to ED50 for human A549 cells; format: functional
[15] = test system: SK-BR-3; experiment: Selectivity ratio of ED50 for human SKBR3 cells to ED50 for human DU145 cells; format: functional
[16] = test system: SK-BR-3; experiment: Selectivity ratio of ED50 for human SKBR3 cells to ED50 for human KB cells; format: functional

Row | SMILES | EC50 [1] [µg/mL] | EC50 [2] [µg/mL] | EC50 [3] [µg/mL] | EC50 [4] [µg/mL] | IC50 [5] [µM] | EC50 [6] [µg/mL] | EC50 [7] [µg/mL] | solubility [8] [mg/mL] | Ratio ED50 [9] | Ratio ED50 [10] | Ratio ED50 [11] | Ratio ED50 [12] | Ratio ED50 [13] | Ratio ED50 [14] | Ratio ED50 [15] | Ratio ED50 [16]
1 | CCN[C@H]1CCc2cc(OC)c(OC)c(OC)c2-c2ccc(SC)c(=O)cc21 | 0.0146 (≈ 0.0364 µM) | 0.031 (≈ 0.0772 µM) | 0.0138 (≈ 0.0344 µM) | 0.0141 (≈ 0.0351 µM) | 5.4 | 0.0193 (≈ 0.0481 µM) | 0.02 (≈ 0.0498 µM) |  |  |  |  |  |  |  |  | 
2 | CCCN([C@H]1CCc2cc(OC)c(OC)c(OC)c2-c2ccc(SC)c(=O)cc21)S(=O)(=O)c1ccccc1[N+](=O)[O-] | 1.36 (≈ 2.27 µM) | > 1 | 0.357 (≈ 0.595 µM) | 0.616 (≈ 1.02 µM) | > 40 | 1.63 (≈ 2.72 µM) | 0.96 (≈ 1.6 µM) |  |  |  |  |  |  |  |  | 
3 | CCN([C@H]1CCc2cc(OC)c(OC)c(OC)c2-c2ccc(SC)c(=O)cc21)S(=O)(=O)c1ccccc1[N+](=O)[O-] | 0.174 (≈ 0.296 µM) | 0.52 (≈ 0.886 µM) | 0.163 (≈ 0.278 µM) | 0.148 (≈ 0.253 µM) | 4.2 | 0.212 (≈ 0.361 µM) | 0.13 (≈ 0.222 µM) |  |  |  |  |  |  |  |  | 
4 | COc1cc2c(c(OC)c1OC)-c1ccc(OC)c(=O)cc1[C@@H](NC(C)=O)CC2 [COLCHICINE] | 0.158 (≈ 0.395 µM) | 0.054 (≈ 0.135 µM) | 0.0027 (≈ 0.00676 µM) | 0.0027 (≈ 0.00676 µM) |  | 0.0199 (≈ 0.0498 µM) | 0.0038 (≈ 0.00951 µM) |  |  |  |  |  |  |  |  | 
5 | CN[C@H]1CCc2cc(OC)c(OP(=O)(O)O)c(OC)c2-c2ccc(SC)c(=O)cc21 | 1.71 (≈ 3.76 µM) | > 1 | 0.157 (≈ 0.347 µM) | 0.137 (≈ 0.302 µM) | > 40 | 0.533 (≈ 1.18 µM) | 0.25 (≈ 0.551 µM) | 15 (≈ 33100 µM) |  |  |  |  |  |  |  | 
6 | COc1cc2c(c(OC)c1OC)-c1ccc(SC)c(=O)cc1[C@@H](NS(=O)(=O)c1ccccc1[N+](=O)[O-])CC2 | 0.112 (≈ 0.2 µM) | 0.027 (≈ 0.0483 µM) | 0.0129 (≈ 0.0231 µM) | 0.0126 (≈ 0.0226 µM) | 1.1 | 0.0209 (≈ 0.0374 µM) | 0.01 (≈ 0.0179 µM) |  |  |  |  |  |  |  |  | 
7 | COc1cc2c(c(OC)c1OC)-c1ccc(SC)c(=O)cc1[C@@H](N(C)S(=O)(=O)c1ccccc1[N+](=O)[O-])CC2 | 0.153 (≈ 0.266 µM) | 0.12 (≈ 0.21 µM) | 0.0312 (≈ 0.0545 µM) | 0.0285 (≈ 0.0498 µM) | 0.92 | 0.129 (≈ 0.225 µM) | 0.035 (≈ 0.0611 µM) |  |  |  |  |  |  |  |  | 
8 | CN[C@H]1CCc2cc(OC)c(O)c(OC)c2-c2ccc(SC)c(=O)cc21 | 1.38 (≈ 3.7 µM) |  | 0.505 (≈ 1.35 µM) | 0.487 (≈ 1.31 µM) | > 40 | 1.55 (≈ 4.14 µM) | 0.55 (≈ 1.47 µM) |  |  |  |  |  |  |  |  | 
9 | CCN(CC)[C@H]1CCc2cc(OC)c(OC)c(OC)c2-c2ccc(SC)c(=O)cc21.O=C(O)CCC(=O)O | 0.151 | 0.11 | 0.125 | 0.136 | 16 | 0.181 | 0.063 | 107 |  |  |  |  |  |  |  | 
10 | COc1cc2c(c(OC)c1OC)-c1ccc(SC)c(=O)cc1[C@@H](N(C)C)CC2.O=C(O)CCC(=O)O | 0.125 | 0.022 | 0.124 | 0.0129 | 3.6 | 0.19 | 0.12 | 103 | 10 | 10 | 10 | 10 | 10 | 10 | 10 | 10
11 | CN[C@H]1CCc2cc(OC)c(O)c(OC)c2-c2ccc(SC)c(=O)cc21.O=C(O)CCC(=O)O | 1.35 | > 1 | 0.342 | 0.39 | 23 | 1.26 | 0.35 | 95 |  |  |  |  |  |  |  | 
12 | COc1cc2c(c(OC)c1O)-c1ccc(SC)c(=O)cc1[C@@H](N(C)S(=O)(=O)c1ccccc1[N+](=O)[O-])CC2 | 1.49 (≈ 2.67 µM) | > 1 | 1.15 (≈ 2.06 µM) | 1.01 (≈ 1.81 µM) | 3.6 | 1.68 (≈ 3.01 µM) | 0.72 (≈ 1.29 µM) |  |  |  |  |  |  |  |  | 
